pIC50, pKi: −log10 of the molar value.
How the values were obtained:
human FLAP = human FLAP (Homo sapiens (Human), UniProt P20292); assay: FLAP binding assay (HTRF); settings: human FLAP-containing membranes, HTRF format; average of two assay plates, duplicates; read-out: FLAP Binding wild type HTRF Ki
How it was run: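 Binding values are averages from two separate assay plates, with each sample run in duplicate per plate. Data are expressed as an HTRF ratio.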

[1] = test system: leukotriene pathway in human whole blood (LTB4 levels); assay: Human whole blood assay (LTB4); assay type: cell-based; settings: human whole blood diluted 1:1 in RPMI, stimulated with calcium ionophore A23187; single replicate
Method: The ability of the compounds of the present invention to treat a FLAP-mediated disease and/or disorder, or associated symptoms or complications thereof, was determined using the following procedures. Binding assay data represent the average value obtained from two different assay plates, with samples run in duplicate on each plate. Human whole blood assay data represent a single replicate on an assay plate using whole blood from at least one healthy donor.
An in vitro cellular assay was performed using human whole blood collected in heparin-containing tubes, which was used to test the ability of compounds to modulate the leukotriene pathway in human whole blood. The blood was diluted 1:1 in RPMI medium, pre-incubated for 15 min at 37° Celsius with test compounds at various concentrations, and then stimulated with calcium ionophore, A23187 (7 μg/mL), for 30 min at 37° Celsius. The samples were then centrifuged and plasma was removed. The plasma was diluted in assay buffer and LTB4 levels were measured using a commercial kit (Enzo Life Sciences). The concentration of each compound that was required for half-maximal inhibition (modulation) of recombinant enzyme activity (IC50) was calculated by a 4-parameter equation using the program GraphPad Prism (GraphPad software).

human FLAP, sequence (P20292 whole entry): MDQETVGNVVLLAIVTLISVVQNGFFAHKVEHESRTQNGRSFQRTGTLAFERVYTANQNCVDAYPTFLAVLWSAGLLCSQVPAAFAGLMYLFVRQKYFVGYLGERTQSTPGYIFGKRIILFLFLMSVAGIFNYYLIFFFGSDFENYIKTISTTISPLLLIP

Row | Compound | pKi (human FLAP) | pIC50 [1]
1 | Nc1cnc(NCC(O)COc2c(C3CCC3)ccc(-c3cnc(N)cn3)c2F)nc1 (racemic) [Example 58, racemic 1-(3-(5-Aminopyrazin-2-yl)-6-cyclobutyl-2-fluorophenoxy)-3-((5-aminopyrimidin-2-yl)amino)propan-2-ol] | 7.52 | 6.43
2 | Nc1cnc(-c2ccc(C3CCC3)c(OCC(O)CNc3cc(N)ncn3)c2F)cn1 (racemic) [Example 59, racemic 1-(3-(5-Aminopyrazin-2-yl)-6-cyclobutyl-2-fluorophenoxy)-3-((6-aminopyrimidin-4-yl)amino)propan-2-ol] | 6.49 | 5.81
3 | Nc1cnc(-c2ccc(C3CCC3)c(OCC(O)Cn3ccnc3)c2F)cn1 (racemic) [Example 61, racemic 1-(3-(5-Aminopyrazin-2-yl)-6-cyclobutyl-2-fluorophenoxy)-3-(1H-imidazol-1-yl)propan-2-ol] | 6.58 | 6.16
4 | Nc1cnc(-c2ccc(C3CCC3)c(OCC(O)Cn3cncn3)c2F)cn1 (racemic) [Example 62, racemic 1-(3-(5-Aminopyrazin-2-yl)-6-cyclobutyl-2-fluorophenoxy)-3-(1H-1,2,4-triazol-1-yl)propan-2-ol] | 6.50 | 6.08
5 | Nc1cnc(-c2ccc(C3CCC3)c(OCC(O)Cn3ccnn3)c2F)cn1 (racemic) [Example 63, racemic 1-(3-(5-Aminopyrazin-2-yl)-6-cyclobutyl-2-fluorophenoxy)-3-(1H-1,2,3-triazol-1-yl)propan-2-ol] | 6.92 | 6.67
6 | Nc1cnc(-c2ccc(C3CCC3)c(OCC(O)Cn3nccn3)c2F)cn1 (racemic) [Example 64, racemic 1-(3-(5-Aminopyrazin-2-yl)-6-cyclobutyl-2-fluorophenoxy)-3-(2H-1,2,3-triazol-2-yl)propan-2-ol] | 7.07 | 6.56
7 | Nc1cnc(-c2ccc(C3CCC3)c(OCC(O)Cn3nncc3N)c2F)cn1 (racemic) [Example 66, racemic 1-(5-Amino-1H-1,2,3-triazol-1-yl)-3-(3-(5-aminopyrazin-2-yl)-6-cyclobutyl-2-fluorophenoxy)propan-2-ol] | 6.37 | 6.12
8 | Nc1cnc(-c2ccc(C3CCC3)c(OCC(O)CN3CCOCC3)c2F)cn1 (racemic) [Example 255, 1-(3-(5-aminopyrazin-2-yl)-6-cyclobutyl-2-fluorophenoxy)-3-morpholinopropan-2-ol] | 5.94 | 5.94
9 | Nc1cnc(-c2ccc(C3CCC3)c(OCC(O)CN3CCS(=O)(=O)CC3)c2F)cn1 (racemic) [Example 256, 4-(3-(3-(5-Aminopyrazin-2-yl)-6-cyclobutyl-2-fluorophenoxy)-2-hydroxypropyl)thiomorpholine 1,1-dioxide] | 6.36 | 6.14
10 | Nc1cnc(-c2ccc(C3CCC3)c(OCC(O)Cn3c(=O)[nH]c4ccccc43)c2F)cn1 (racemic) [Example 311, racemic 1-{3-[3-(5-Aminopyrazin-2-yl)-6-cyclobutyl-2-fluorophenoxy]-2-hydroxypropyl}-1,3-dihydro-2H-benzimidazol-2-one] | 8.09 | 6.96
11 | COc1c(C2CCC2)ccc(-c2cnc(N)cn2)c1F [A, 5-(4-Cyclobutyl-2-fluoro-3-methoxyphenyl)pyrazin-2-amine] | 7.19 | 6.27
12 | Nc1cnc(-c2ccc(C3CCC3)c(O)c2F)cn1 [B, 3-(5-Aminopyrazin-2-yl)-6-cyclobutyl-2-fluorophenol] | 6.45 | 6.02
13 | Nc1cnc(-c2ccc(C3CCC3)c(OCc3ccc(C(F)(F)F)cc3)c2F)cn1 [Example 1, 5-(4-Cyclobutyl-2-fluoro-3-{[4-(trifluoromethyl)benzyl]oxy}phenyl)-pyrazin-2-amine] | 6.54 | 6.23
14 | Nc1cnc(-c2ccc(C3CCC3)c(OCc3cccc(C(F)(F)F)c3)c2F)cn1 [Example 2, 5-(4-Cyclobutyl-2-fluoro-3-{[3-(trifluoromethyl)benzyl]oxy}phenyl)-pyrazin-2-amine] | 6.80 | 6.28
15 | Nc1cnc(-c2ccc(C3CCC3)c(OCc3ccccc3C(F)(F)F)c2F)cn1 [Example 3, 5-(4-Cyclobutyl-2-fluoro-3-{[2-(trifluoromethyl)benzyl]oxy}phenyl)-pyrazin-2-amine] | 6.60 | 6.57
16 | Nc1cnc(-c2ccc(C3CCC3)c(OCc3cccc(C(=O)O)c3)c2F)cn1 [Example 4, 3-{[3-(5-Aminopyrazin-2-yl)-6-cyclobutyl-2-fluorophenoxy]methyl}benzoic acid] | 8.40 | 6.53
17 | Nc1cnc(-c2ccc(C3CCC3)c(OCc3ccc(C(=O)O)cc3)c2F)cn1 [Example 5, 4-{[3-(5-Aminopyrazin-2-yl)-6-cyclobutyl-2-fluorophenoxy]methyl}benzoic acid] | 7.96 | 6.58

Row | Compound | pKi (human FLAP) | pIC50 [1]
18 | CS(=O)(=O)c1ccc(COc2c(C3CCC3)ccc(-c3cnc(N)cn3)c2F)cc1 [Example 7, 5-(4-Cyclobutyl-2-fluoro-3-{[4-(methylsulfonyl)benzyl]oxy}phenyl)-pyrazin-2-amine] | 8.15 | 5.85
19 | Nc1cnc(-c2ccc(C3CCC3)c(OCc3cccnc3)c2F)cn1 [Example 13, 5-[4-Cyclobutyl-2-fluoro-3-(pyridin-3-ylmethoxy)phenyl]pyrazin-2-amine] | 6.60 | 5.89
20 | Nc1cnc(-c2ccc(C3CCC3)c(OCc3ccncc3)c2F)cn1 [Example 14, 5-[4-Cyclobutyl-2-fluoro-3-(pyridin-4-ylmethoxy)phenyl]pyrazin-2-amine] | 6.91 | 5.64
21 | N#Cc1ccc(COc2c(C3CCC3)ccc(-c3cnc(N)cn3)c2F)cc1 [Example 15, 4-{[3-(5-Aminopyrazin-2-yl)-6-cyclobutyl-2-fluorophenoxy]methyl}benzonitrile] | 6.71 | 5.91
22 | N#Cc1cccc(COc2c(C3CCC3)ccc(-c3cnc(N)cn3)c2F)c1 [Example 16, 3-{[3-(5-Aminopyrazin-2-yl)-6-cyclobutyl-2-fluorophenoxy]methyl}benzonitrile] | 7.01 | 6.33
23 | NC(=O)c1cccc(COc2c(C3CCC3)ccc(-c3cnc(N)cn3)c2F)c1 [Example 17, 3-{[3-(5-Aminopyrazin-2-yl)-6-cyclobutyl-2-fluorophenoxy]methyl}benzamide] | 7.80 | 6.56
24 | N#Cc1ccccc1COc1c(C2CCC2)ccc(-c2cnc(N)cn2)c1F [Example 18, 2-{[3-(5-Aminopyrazin-2-yl)-6-cyclobutyl-2-fluorophenoxy]methyl}benzonitrile] | 6.92 | 5.93
25 | NC(=O)c1ccccc1COc1c(C2CCC2)ccc(-c2cnc(N)cn2)c1F [Example 19, 2-{[3-(5-Aminopyrazin-2-yl)-6-cyclobutyl-2-fluorophenoxy]methyl}benzamide] | 7.00 | 6.09
26 | Nc1cnc(-c2ccc(C3CCC3)c(OCc3ccc(-c4nnn[nH]4)cc3)c2F)cn1 [Example 20, 5-(4-Cyclobutyl-2-fluoro-3-{[4-(1H-tetrazol-5-yl)benzyl]oxy}phenyl)pyrazin-2-amine] | 8.30 | < 5.00
27 | Nc1cnc(-c2ccc(C3CCC3)c(OCc3cccc(-c4nnn[nH]4)c3)c2F)cn1 [Example 21, 5-(4-Cyclobutyl-2-fluoro-3-{[3-(1H-tetrazol-5-yl)benzyl]oxy}phenyl)pyrazin-2-amine] | 8.10 | 5.38
28 | Nc1cnc(-c2ccc(C3CCC3)c(OCc3ccccc3-c3nnn[nH]3)c2F)cn1 [Example 22, 5-(4-Cyclobutyl-2-fluoro-3-{[2-(1H-tetrazol-5-yl)benzyl]oxy}phenyl)pyrazin-2-amine] | 8.22 | < 5.00
29 | Nc1cnc(-c2ccc(C3CCC3)c(OCc3ccc(CC(=O)O)cc3)c2F)cn1 [Example 23, (4-{[3-(5-Aminopyrazin-2-yl)-6-cyclobutyl-2-fluorophenoxy]methyl}phenyl)acetic acid] | 8.70 | 6.44
30 | Nc1cnc(-c2ccc(C3CCC3)c(OCc3ccccn3)c2F)cn1 [Example 24, 5-[4-Cyclobutyl-2-fluoro-3-(pyridin-2-ylmethoxy)phenyl]pyrazin-2-amine] | 7.00 | < 5.00
31 | CN(C)S(=O)(=O)c1ccc(COc2c(C3CCC3)ccc(-c3cnc(N)cn3)c2F)cc1 [Example 25, 4-{[3-(5-Aminopyrazin-2-yl)-6-cyclobutyl-2-fluorophenoxy]methyl}-N,N-dimethylbenzenesulfonamide] | 7.92 | 6.24
32 | Nc1cnc(-c2ccc(C3CCC3)c(OCc3ccc(S(N)(=O)=O)cc3)c2F)cn1 [Example 26, 4-{[3-(5-Aminopyrazin-2-yl)-6-cyclobutyl-2-fluoro-phenoxy]methyl}benzenesulfonamide] | 7.70 | < 5.00
33 | CNS(=O)(=O)c1ccc(COc2c(C3CCC3)ccc(-c3cnc(N)cn3)c2F)cc1 [Example 27, 4-{[3-(5-Aminopyrazin-2-yl)-6-cyclobutyl-2-fluorophenoxy]methyl}-N-methylbenzenesulfonamide] | 8.22 | 6.09
34 | Nc1cnc(-c2ccc(C3CCC3)c(OCc3cccc(F)c3)c2F)cn1 [Example 29, 5-{4-Cyclobutyl-2-fluoro-3-[(3-fluorobenzyl)oxy]phenyl}pyrazin-2-amine] | 6.65 | 5.97

From patent US9073876B2, “Flap modulators” (JANSSEN PHARMACEUTICA NV, priority 2013, dated 2015)
